Experimental findings from PMC4926109, “Pharmacological targeting of glucose-6-phosphate dehydrogenase in human erythrocytes by Bay 11–7082, parthenolide and dimethyl fumarate” (Scientific Reports, 2016) are described below.

Data set [1] relates to mature human erythrocytes. Put plainly: MCV and MCHC of inhibitor-treated erythrocytes (ADVIA 120 Hematology System). The data set is classed as cell-based. The following applies: 20 μM, 24 h incubation, Hct 0.6%. Here is the method: Erythrocyte concentrates (0.6% Hct), suspended in 30 ml Ringer solution were treated with Bay 11–7082 (20 μM), parthenolide (50 μM) and DMF (140 μM) for 24 h, respectively. DMSO (0.2% (v/v))-treated erythrocytes served as negative controls. After incubation, samples were centrifuged at 210 g for 10 min at room temperature in order to obtain RBC pellets. Ionomycin (0.25 μM)-treated erythrocytes served as positive controls, and were first incubated in Ringer solution in the absence of ionomycin for 21.5 h. Subsequently, the cells were treated with ionomycin for 2.5 h, and the MCV and MCHC values were determined. The MCV and MCHC analysis was carried out with an ADVIA 120 Hematology System Instrument (Siemens, Germany).

Data set [2] relates to mature human erythrocytes. Put plainly: Forward scatter (FSC, GeoMean) by flow cytometry, cell volume / cell shrinkage. To be noted: for GeoMean: 20 μM, 24 h incubation, Hct 0.6%. The data set is classed as cell-based. Here is the method: (§1) After incubation, 2·10^6 RBCs were washed in 500 μl Annexin-binding buffer. RBC pellets were then vortexed gently to get a homogenous cell suspension. To detect phosphatidylserine (PS) on the outer leaflet of the plasma membrane, these cells were subsequently stained with 32 μl Annexin V-FLUOS at a 1:33 dilution and mixed gently on a vortex mixer. After 20 min incubation in the dark at room temperature, 200 μl of Annexin-binding buffer was added to each sample, thoroughly vortexed to achieve single cell suspensions, and analysed by flow cytometry on a FACS-Calibur (Becton Dickinson, Heidelberg, Germany). Cell volume was determined by forward scatter (FSC), and Annexin V-FLUOS binding was measured in the FL1-channel.

Data set [3] has as its system GSH in mature human erythrocytes. Put plainly: Intracellular GSH measurement by HPLC (GS-NEM conjugate). The data set is classed as cell-based. Here is the method:
(§2) DMSO-treated erythrocytes served as negative controls. After incubation, erythrocytes were treated with 0.6 mM (final concentration) NEM prepared as a 310 mM stock in H2O. NEM functioned as the best alkylating agent for GSH conjugation to prevent sample manipulation-induced oxidation of GSH. After a 2-min incubation at room temperature, samples were centrifuged at 210 g for 10 min in order to obtain RBC pellets. These were immediately stored at −20 °C until GSH and GSSG analyses were performed. All measurements were carried out within one week after the treatment. GSH and GSSG were measured in the clear supernatant obtained by treatment of 0.1 ml RBCs with 0.12 ml 15% (w/v) trichloroacetic acid. GSH analysis was carried out by high-performance liquid chromatography (HPLC), as recently reported. […] GSSG was measured photometrically by the GSH recycling method with slight modifications. For hemoglobin determination, one aliquot of the RBC suspensions (10 μl) was hemolysed by 1:200 dilution with H2O[62]. The HPLC analyses were carried out with an Agilent series 1100 instrument (Agilent Technologies, Milan, Italy). The photometric analyses were performed with a Jasco V-530 instrument (Jasco Europe s.r.l. Cremella, Como, Italy).

The subject of data set [4] is GSSG in mature human erythrocytes. Put plainly: Intracellular GSSG measurement, photometric GSH recycling method. The data set is classed as cell-based. The following applies: 20 μM, 24 h, 0.6% Hct; DMSO control 0.06. Here is the method:
as §2

Data set [5] has as its target T1, glucose-6-phosphate dehydrogenase (G6PDH) (Homo sapiens, UniProt P11413).
T1 construct: endogenous in cells; host or cells: human erythrocytes (RBC concentrates), treated 24 h, then lysed
Put plainly: G6PDH activity in lysates of inhibitor-treated erythrocytes. The data set is classed as cell-based. The following applies: erythrocytes treated 24 h, 0.6% Hct. Here is the method: (§3) DMSO-treated erythrocytes served as negative controls. Determinations of the enzymatic activities of G6PDH, 6PGDH and GR (+/− FAD) were performed in leukocytes- and platelets-free erythrocyte lysates according to standard biochemical procedures. After 10 min incubation (20 min for GR) at 37 °C the reaction was started by adding substrate or co-factor. Changes in absorbance at 340 nm were recorded at 1 min intervals for 20 min (Infinite 200 Nanoquant spectrophotometer; Tecan, Männedorf, Switzerland). Specific activity of all enzymes was expressed as U/g Hb. The combined activity of G6PDH and 6PGDH was determined by estimating the conversion of NADP^+ to NADPH in the presence of glucose-6-phosphate (600 μM). The activity of 6PGDH alone was then measured by the conversion of NADP^+ to NADPH in the presence of 6-phosphogluconate (600 μM). Finally, G6PDH activity was calculated by subtracting 6PGDH activity from total dehydrogenase activity.

Data set [6] concerns the target T2, glutathione reductase (GR) (Homo sapiens, UniProt P00390).
T2 construct: endogenous in cells; host or cells: human erythrocytes (RBC concentrates), treated 24 h, then lysed
T2 sequence (P00390 1-479 isoform P00390-2): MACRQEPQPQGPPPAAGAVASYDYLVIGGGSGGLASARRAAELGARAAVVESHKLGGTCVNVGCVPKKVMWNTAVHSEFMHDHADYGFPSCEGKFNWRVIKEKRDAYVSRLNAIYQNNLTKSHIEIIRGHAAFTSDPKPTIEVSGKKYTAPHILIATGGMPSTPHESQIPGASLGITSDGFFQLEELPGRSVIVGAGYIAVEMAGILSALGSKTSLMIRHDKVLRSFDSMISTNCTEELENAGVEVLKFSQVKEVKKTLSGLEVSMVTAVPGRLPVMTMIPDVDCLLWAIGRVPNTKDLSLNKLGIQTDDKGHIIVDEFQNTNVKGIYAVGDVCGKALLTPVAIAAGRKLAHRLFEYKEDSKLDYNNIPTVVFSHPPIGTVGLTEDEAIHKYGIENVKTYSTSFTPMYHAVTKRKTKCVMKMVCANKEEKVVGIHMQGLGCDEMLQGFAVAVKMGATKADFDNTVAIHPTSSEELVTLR
In words: GR activity (+/- FAD) in lysates of inhibitor-treated erythrocytes. The data set is classed as cell-based. The protocol:
as §3

Another data set concerns the target T3, 6PGDH (Homo sapiens, UniProt P52209).
T3 construct: endogenous in cells; host or cells: human erythrocytes (RBC concentrates), treated 24 h, then lysed
T3 sequence (P52209 2-483 limits assumed): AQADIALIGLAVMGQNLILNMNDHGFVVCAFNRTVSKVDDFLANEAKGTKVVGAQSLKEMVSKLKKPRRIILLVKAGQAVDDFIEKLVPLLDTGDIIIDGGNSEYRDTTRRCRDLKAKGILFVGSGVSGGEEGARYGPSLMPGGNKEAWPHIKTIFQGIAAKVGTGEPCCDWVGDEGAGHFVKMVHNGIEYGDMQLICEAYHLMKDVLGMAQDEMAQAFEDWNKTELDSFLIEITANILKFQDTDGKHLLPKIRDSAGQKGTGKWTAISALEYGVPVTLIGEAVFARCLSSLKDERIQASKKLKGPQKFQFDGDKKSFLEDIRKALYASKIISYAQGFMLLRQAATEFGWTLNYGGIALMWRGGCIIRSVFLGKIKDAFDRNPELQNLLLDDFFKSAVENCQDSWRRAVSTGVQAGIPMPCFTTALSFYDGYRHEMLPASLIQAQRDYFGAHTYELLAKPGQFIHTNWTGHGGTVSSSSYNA
Put plainly: 6PGDH activity in lysates of inhibitor-treated erythrocytes. The following applies: at the concentrations used, data not shown. The format is cell-based. The protocol: as §3

In data set [7] the test system is human erythrocytes. Put plainly: Eryptosis: Annexin V binding to phosphatidylserine, flow cytometry. The format is cell-based. To be noted: increasing concentrations, same donors, 24 h and 48 h. The protocol:
as §1

The next data set relates to Trypanosoma brucei. Put plainly: In vitro growth inhibition of parasite culture (own unpublished data). The following applies: preliminary work. The data set is classed as cell-based.
Data set [8] relates to human erythrocytes. To be noted: 20 µM.
Procedure: RBC concentrates (0.4% Hct) were treated with varying concentrations of Bay 11–7082, parthenolide or DMF for 24 h or 48 h, then hemolysis was determined. Briefly, after incubation, 600 μl suspension containing 1.2·10^7 RBCs were centrifuged for 4 min at 420 g, 4 °C, and the supernatants were harvested. To quantify hemolysis, the hemoglobin concentration of the supernatant was determined photometrically at 405 nm. The absorption of the supernatant of RBCs lysed in distilled water was defined as 100% hemolysis.

T1 sequence (P11413 2-515 limits assumed): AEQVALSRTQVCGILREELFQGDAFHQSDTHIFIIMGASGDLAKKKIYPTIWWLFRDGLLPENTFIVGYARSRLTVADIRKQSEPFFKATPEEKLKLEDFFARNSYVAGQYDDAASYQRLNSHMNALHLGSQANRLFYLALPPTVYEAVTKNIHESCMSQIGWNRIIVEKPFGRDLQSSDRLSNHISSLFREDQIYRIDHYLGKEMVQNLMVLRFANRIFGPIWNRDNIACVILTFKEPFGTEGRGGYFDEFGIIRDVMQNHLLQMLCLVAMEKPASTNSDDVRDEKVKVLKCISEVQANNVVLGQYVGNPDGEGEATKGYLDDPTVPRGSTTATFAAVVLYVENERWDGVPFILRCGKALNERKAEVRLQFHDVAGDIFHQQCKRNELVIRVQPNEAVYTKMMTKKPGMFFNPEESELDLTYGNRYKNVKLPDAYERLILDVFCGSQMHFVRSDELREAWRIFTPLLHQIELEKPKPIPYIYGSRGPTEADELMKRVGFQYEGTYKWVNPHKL

Take `Cc1ccc(S(=O)(=O)/C=C/C#N)cc1` [Bay 11–7082]: the MCHC is 33.9 g/dL in data set [1] (blood group A Rhesus +), 37 g/dL in [1] (blood group B Rhesus +) and 34.1 g/dL in [1] (blood group O Rhesus +). In addition, the figures for the MCV in data set [1] (blood group A Rhesus +), in data set [1] (blood group B Rhesus +) and in [1] (blood group O Rhesus +) were 84.1 fL, 78.5 fL and 86.3 fL, respectively. For the same compound, the GeoMean in data set [2] (blood group A Rhesus +) is reported as 422.4; in data set [2] (blood group B Rhesus +), 339.3; in [2] (blood group O Rhesus +) it was 410.7. Also, in data set [2] (increasing concentrations, 24 h and 48 h, 0.4% Hct), the “decrease of cell volume (forward scatter)” value is recorded as “marked decrease”. The GSH depletion entry in data set [3] (20 μM final concentration, 24 h) was “totally deplete GSH”. This compound registered a GSH in data set [3] (20 μM, 24 h, 0.6% Hct, DMSO control 7.52) of 0.00 nmol/mg Hb. Also, the IC50 in data set [3] (24 h in Ringer solution, 0.6% Hct (mean GSH 15 μM), read-out: IC50 (GSH depletion)) was 7.6 µM. The GSSG in [4] was determined as 0.03 nmol/mg Hb. Also, the “EC100 (inhibition of G6PDH activity)” value in data set [5] came out at 20. Further, the EC50 in data set [5] (read-out: EC50 (inhibition of G6PDH activity)) turned out to be 10 µM; in [6] (erythrocytes treated 24 h, 0.6% Hct, read-out: EC50 (inhibition of GR activity)) it was 10 µM. In addition, the “inhibition of GR activity” value in data set [6] (20 μM, 24 h) worked out at 100%. For the same compound, the “EC100 (inhibition of GR activity)” value in [6] (erythrocytes treated 24 h, 0.6% Hct) is 20. Besides, the “GR activity after addition of exogenous FAD” value in data set [6] (samples previously treated with 20 μM for 24 h) is “did not demonstrate significantly increased GR activity in the presence of FAD”. The “inhibitory effect on 6PGDH activity” value on 6PGDH is recorded as “did not observe any inhibitory effect”. For the same compound, in the data set with human erythrocytes [7], the “eryptosis (Annexin V binding), comparison of the three inhibitors” value is “strongest effect”. The “in vitro growth inhibitory effect on parasites' culture” value with Trypanosoma brucei is “significant in vitro growth inhibitory effect”. For the same compound, in the data set with human erythrocytes [8], the “hemolysis (share of total population)” value is listed as “approx. 3%”.
